Earlier results as cited in US20230076527A1, “TREATMENT OF PAROXYSMAL NOCTURNAL HEMOGLOBINURIA” (Apellis Pharmaceuticals, Inc., priority 2020, published 2023).

Tested on: complement activation
Conditions: relative to compstatin amidated at the C-terminus; published data; cited from earlier work

Substance | Activity over compstatin [xmore]
Ac-ICVYQDWGAHRCT-CONH2 [AC-V4Y/H9A] | 14
Ac-1CV(2-Igl)QDWGAHRCT-CONH2 [Ac-V42Igl/H9A] | 39
Ac-ICV(1-Nal)QDWGAHRCT-COOH (N-acetyl, 1-Nal) [Ac V4(1-Nal)/H9A -OH] | 30
Ac-ICV(Bpa)QDWGAHRCT-CONH2 (N-acetyl, C-amide, Bpa) [Ac-V4(Bpa)/H9A] | 86
Ac-ICV(2-Nal)QDWGAHRCT-CONH2 (N-acetyl, C-amide, 2-Nal) [Ac-V4(2-Nal)/H9A] | 99
Ac-ICV(Bpa)QDWGAHRCT-COOH (N-acetyl, Bpa) [Ac-V4(Bpa)/H9A -OH] | 49
Ac-ICVWQD(5fW)GAHRCT-CONH2 [Ac-V4W/W7(5fW)/H9A] | 121
H-GICV(6fW)QD(6fW)GAHRCTN-COOH (6-fluoro-Trp) [+G/V4(6fW)/W7(6fW)H9A+N -OH] | 126
Ac-ICV(2-Igl)QDWGAHRCT-COOH (N-acetyl, 2-Igl) [Ac-V42Igl/H9A -OH] | 37
Ac-ICVWQDWGAHRCT-CONH2 (Ac-ICVWQDWGAHRCT-NH2; cysteine pairing not given here) [Ac-V4W/H9A] | 45
Ac-ICVVQDWGHHRCT-CONH2 [Ac-compstatin] | 3
Ac-ICVDhtQDWGAHRCT-COOH [Ac-V4Dht/H9A -OH] | 5
Ac-ICVWQDWGAHRCdT-COOH [AC-V4W/H9A/T13dT -OH] | 55
Ac-ICV(2-Nal)QDWGAHRCT-COOH (N-acetyl, 2-Nal) [Ac V4(2-Nal)/H9A -OH] | 38
